Values of other authors as cited in US20260301880A1, “NOSE-TO-BRAIN PHYSIOLOGICALLY BASED PHARMACOKINETIC MODEL” (APTARGROUP INC., priority 2023, published 2026).

Key:
[1] = literature value, porcine nasal mucosa
[2] = not given; remark: listed apart in the source
[3] = octanol/water
[4] = humans
[5] = not given; remark: listed apart in the source
[6] = clinical
[7] = healthy volunteers

SMILES: CN1C[C@H](C(=O)N[C@]2(C)O[C@@]3(O)[C@@H]4CCCN4C(=O)[C@H](Cc4ccccc4)N3C2=O)C[C@@H]2c3cccc4[nH]cc(c34)C[C@H]21 [DHE, dihydroergotamine]
- P - Permeability in the nasal epithelium [1]: 1.48 × 10^−7
- pKa (acid) (acid): 9.71
- pKa (base) (base): 8.39
- fu - fraction unbound in blood plasma [2]: 0.03
- LogP [3]: 2

SMILES: CC(=O)Nc1ccc(O)cc1 [paracetamol]
- PbAb - Permeability-surface area product between brain blood and brain mass [4]: 1.875 L/h

SMILES: CNS(=O)(=O)Cc1ccc2[nH]cc(CCN(C)C)c2c1 [sumatriptan]
- R - Blood/plasma ratio [5]: 1
- reported nasal bioavailability [6]: 16%
- oral bioavailability [7]: low
- fu - fraction unbound in blood plasma [2]: 0.63
